Laboratory results: paper PMC6222425, “Novel 5′-Norcarbocyclic Derivatives of Bicyclic Pyrrolo- and Furano[2,3-d]Pyrimidine Nucleosides” (Molecules : A Journal of Synthetic Chemistry and Natural …, 2018)

What was measured:
Type in all cases: cell-based
[1] = system: HuTu-80 (human duodenal cancer) cells; experiment: Cell viability analysis by MTT assay, HuTu-80; conditions: for IC50: Homo sapiens, HuTu80, MTT, 48 h incubation, read-out: Antiproliferative activity, IC50, HuTu80; for Selectivity index, HuTu80: ratio of IC50 on normal hFF3 cells to IC50 of HuTu80
Procedure: (§1) The target compounds were tested on different lines of tumor cells, HuTu-80 (human duodenal cancer), B16 (mouse melanoma), A549 (human lung adenocarcinoma), KB-3-1 (human squamous cell carcinoma), HeLa (human squamous cell carcinoma of the cervix), as well as on human noncancer cells hFF3.
(§2) Human KB-3-1 epidermoid carcinoma cell line, human HeLa cervical epithelioid carcinoma cell line, human HuTu-80 duodenal cancer cells, human A549 lung carcinoma epithelial cells, mouse B16 melanoma cell line and human hFF3 fibroblast cells were obtained from the Russian Cell Culture Collection (St. Petersburg, Russia) and were cultured in DMEM (hFF3 cells in IMDM) supplemented with 10% (v/v) heat-inactivated fetal bovine serum, penicillin (100 U mL^−1), streptomycin (100 µg mL^−1) and amphotericin ([…]). Cells were maintained in a humidified atmosphere of 5% CO2 at 37 °C.
(§3) All compounds were dissolved in dimethylsulfoxide (DMSO) and stock solutions (10 mmol L^−1) were stored at −20 °C.
(§4) Cells growing in the logarithmic phase were seeded in triplicate in 96-well plates at a density of 5 × 10^3 cells per well for HeLa and HuTu-80 cells, 7 × 10^3 cells per well for KB-3-1 and hFF3, 10 × 10^3 for A549 and 20 × 10^3 for B16. The plates were incubated at 37 °C in a humidified 5% CO2 atmosphere. Cells were allowed to adhere to the surface for 24 h and then tested compounds were added at different concentrations and incubation was continued for 48 h. Then [3-(4,5-dimethylthiazol-2-yl)-2,5-diphenyltetrazolium bromide] (MTT) solution (10 µL, 5 mg mL^−1) was added to each well and the incubation was continued for an additional 3 h. The dark blue formazan crystals formed within the healthy cells were solubilized with DMSO and the absorbance was measured using a Multiscan RC plate reader at 570 nm. The IC50 was determined as the compound concentration required to decrease the A570 to 50% compared to the control (no tested compounds, DMSO) and was determined by interpolation from dose-response curves.

[2] = system: A549 (human lung adenocarcinoma) cells; experiment: Cell viability analysis by MTT assay, A549; conditions: for IC50: Homo sapiens, A549, MTT, 48 h incubation, read-out: Antiproliferative activity, IC50, A549; for Selectivity index, A549: ratio of IC50 on normal hFF3 cells to IC50 of A549
Procedure: as §1, §2, §3, §4

[3] = system: KB-3-1 (human epidermoid carcinoma) cells; experiment: Cell viability analysis by MTT assay, KB-3-1; conditions: for IC50: Homo sapiens, KB 3-1, 48 h, MTT, 48 h incubation, read-out: Antiproliferative activity, IC50, KB-3-1; for Selectivity index, KB-3-1: ratio of IC50 on normal hFF3 cells to IC50 of KB-3-1
Procedure: as §1, §2, §3, §4

[4] = system: human noncancer cells hFF3 (fibroblasts); experiment: Cell viability analysis by MTT assay, normal hFF3 cells; conditions: for IC50: Homo sapiens, HFF-3, 48 h, normal cells, MTT, 48 h incubation, read-out: Antiproliferative activity, IC50, hHFF3; for Toxic effect on normal hFF3 cells: concentrations up to 100 μM
Procedure: as §1, §2, §3, §4

[5] = system: HeLa (human cervical epithelioid carcinoma) cells; experiment: Cell viability analysis by MTT assay, HeLa; conditions: for IC50: Homo sapiens, HeLa, MTT, 48 h incubation, read-out: Antiproliferative activity, IC50, HeLa; for Selectivity index, HeLa: ratio of IC50 on normal hFF3 cells to IC50 of HeLa
Procedure: as §1, §2, §3, §4

[6] = system: B16 (mouse melanoma) cells; experiment: Cell viability analysis by MTT assay, B16; conditions: for IC50: Mus musculus, 48 h, MTT, 48 h incubation, read-out: Antiproliferative activity, IC50, B16; for Selectivity index, B16: ratio of IC50 on normal hFF3 cells to IC50 of B16
Procedure: as §1, §2, §3, §4

Row | Compound | IC50 [1] [µM] | IC50 [2] [µM] | IC50 [3] [µM] | Selectivity index, KB-3-1 [3] | IC50 [4] [µM] | Toxic effect on normal hFF3 cells [4] | IC50 [5] [µM] | Selectivity index, HeLa [5] | IC50 [6] [µM] | Selectivity index, A549 [2] | Selectivity index, HuTu80 [1] | Selectivity index, B16 [6]
1 | CCCc1cc2cn(C3C=CC(O)C3)c(=O)nc2o1 (stereo not drawn) [Compound 3a, 1-(4′-Hydroxy-2′-cyclopenten-1′-yl)-6-propyl-3H-furano[2,3-d]-pyrimidine-2-one] | > 100 | > 100 | 40.1 ± 5.2 | >2.5 | > 100 | not toxic | 63.4 ± 6.8 | >1.6 | > 100 |  |  | 
2 | CCCCCCc1cc2cn(C3C=CC(O)C3)c(=O)nc2o1 (stereo not drawn) [Compound 3c, 1-(4′-Hydroxy-2′-cyclopenten-1′-yl)-6-hexyl-3H-furano[2,3-d]-pyrimidine-2-one] | 100 | 50.3 ± 6.1 | 45.3 ± 5.1 | >2.2 | > 100 | not toxic | > 100 |  | > 100 | >1.9 |  | 
3 | CCCCCCCCc1cc2cn(C3C=CC(O)C3)c(=O)nc2o1 (stereo not drawn) [Compound 3d, 1-(4′-hydroxy-2′-cyclopenten-1′-yl)-6-octyl-3Hfurano[2,3-d]-pyrimidine-2-one] | 46.3 ± 5.7 | 54.1 ± 6.1 | 47.3 ± 4.2 | 1 | 48.2 ± 5.1 |  | 40.6 ± 3.9 | 1.2 | 46.2 ± 3.4 | 0.9 | 1 | 1
4 | CCCCCCCCCCc1cc2cn(C3C=CC(O)C3)c(=O)nc2o1 (stereo not drawn) [Compound 3e, 1-(4′-hydroxy-2′-cyclopenten-1′-yl)-6-decyl-3Hfurano[2,3-d]-pyrimidine-2-one] | 7.3 ± 2.4 | 36.2 ± 11.3 | 11.2 ± 5.3 | 1 | 11.6 ± 2.1 |  | 4.5 ± 0.9 | 2.6 | 21.3 ± 3.1 | 0.3 | 1.6 | 0.5
5 | CCCCCCCCCCCCc1cc2cn(C3C=CC(O)C3)c(=O)nc2o1 (stereo not drawn) [Compound 3f, 1-(4′-hydroxy-2′-cyclopenten-1′-yl)-6-dodecyl-3Hfurano[2,3-d]-pyrimidine-2-one] | 7.1 ± 0.8 | 10.5 ± 1.9 | 10.2 ± 4.1 | 1 | 10.2 ± 1.8 |  | 2.5 ± 0.3 | 4.1 | 4.5 ± 0.3 | 1 | 1.4 | 2.3
6 | O=c1nc2oc(-c3ccccc3)cc2cn1C1C=CC(O)C1 (stereo not drawn) [Compound 3g, 1-(4′-Hydroxy-2′-cyclopenten-1′-yl)-6-phenyl-3H-furano[2,3-d]-pyrimidine-2-one] | > 100 | > 100 | 30.1 ± 4.1 | >3.3 | > 100 | not toxic | 45.3 ± 5.1 | >2.2 | > 100 |  |  | 
7 | CC(C)(C)c1ccc(-c2cc3cn(C4C=CC(O)C4)c(=O)nc3o2)cc1 (stereo not drawn) [Compound 3h, 1-(4′-Hydroxy-2′-cyclopenten-1′-yl)-6-tertbutylphenyl-3H-furano[2,3-d]-pyrimidine-2-one] | 9.9 ± 1.7 | 7.2 ± 0.8 | 1.7 ± 0.2 | 3 | 5.1 ± 0.7 |  | 2.3 ± 0.3 | 2.2 | 10.1 ± 2.3 | 0.7 | 0.5 | 0.5
8 | CCCCCc1cc2cn(C3C=CC(O)C3)c(=O)nc2[nH]1 (stereo not drawn) [Compound 4b, 1-(4′-Hydroxy-2′-cyclopenten-1′-yl)-6-pentyl-3H-pyrrolo[2,3-d]-pyrimidine-2-one] | 80.4 ± 0.9 | 45.3 ± 3.9 | 25.2 ± 3.4 | >3.9 | > 100 |  | 50.1 ± 4.7 | >1.9 | > 100 | >2.2 | >1.2 | 
